The source of these data is ChEMBL document CHEMBL1201862, “PubChem BioAssay data set” (2004).

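Five concentrations, 48 hours, 96-well plates. Abbreviation: GI50, concentration required for 50% inhibition of growth.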 Activity calls are given as the source filed them. No stated cut-off is given here; in the data, active = GI50 up to about 1.1 µM and inactive = higher.

Some test systems named below: 786-0; A549; HCT-116; HL-60; HOP-62; HT-29; K562; KM-20L2; KM12; NCI-H460; NCI-H522; OVCAR-3; RPMI-8226; RXF 393; SK-MEL-2; SK-OV-3; SW-620; TK-10; NCI/ADR-RES; PC-3.
What all share (experiment): NCI tumour cell line growth inhibition, 48 h

For `CC1(C)OCC(C(O)C2OC(C)(C)OC2/C=N\O)O1` (stereo unspecified), the GI50 with 786-0, in the experiment on A549, with HCT-116, in the experiment with HL-60, in the experiment on HOP-62 and in the experiment on HT-29 was > 100 µM (inactive) throughout. The GI50 with K562, in the experiment on KM-20L2, with KM12, in the experiment with NCI-H460, in the experiment with NCI-H522 and in the experiment with OVCAR-3 was > 100 µM (inactive) in each case. For the same compound, the GI50 with RPMI-8226, in the experiment on RXF 393, in the experiment on SK-MEL-2, in the experiment with SK-OV-3, with SW-620 and with TK-10 was > 100 µM (inactive) in each case.
As for `CCCCCCCCSC(SCCCCCCCC)=C1C(=O)N(c2ccccc2)N=C1C`, the GI50 with 786-0 is 46.1 µM (inactive); in the experiment with A549 it was 26.8 µM (inactive); in the experiment with HCT-116, 14.8 µM (inactive); in the experiment on HL-60, 19.2 µM (inactive); in the experiment with HOP-62 it was 46.5 µM (inactive); with HT-29, 45.8 µM (inactive). For the same compound, the GI50 with K562 was 28.7 µM (inactive); with KM-20L2, 55.7 µM (inactive); with KM12 it was 33.7 µM (inactive); in the experiment with NCI-H460, 40.3 µM (inactive); with NCI-H522, 20.3 µM (inactive); in the experiment on OVCAR-3, 29.4 µM (inactive). In addition, the GI50 with RPMI-8226 was 39.4 µM (inactive); in the experiment with RXF 393 it was 53.5 µM (inactive); with SK-MEL-2, 58.6 µM (inactive); with SK-OV-3, 77.3 µM (inactive); with SW-620, 14.5 µM (inactive); in the experiment with TK-10 it was 42.6 µM (inactive).
Consider `COC(=O)/C=C\C1C(C(=O)OC)C2(C(=O)OC)CCC1(C(=O)OC)N2` (stereo unspecified), for which the GI50 with 786-0 is 15.3 µM (inactive); in the experiment with A549 it was 20.4 µM (inactive); with HCT-116 it was 13.8 µM (inactive); in the experiment with HL-60 it was 2.51 µM (inactive); in the experiment with HOP-62 it was 18.1 µM (inactive); in the experiment on HT-29 it was 21.2 µM (inactive). For the same compound, the GI50 in the experiment with K562 was 12 µM (inactive); with KM-20L2, 31.9 µM (inactive); in the experiment with KM12, 20.5 µM (inactive); in the experiment with NCI-H460, 21.6 µM (inactive); in the experiment with NCI-H522, 0.681 µM (active); in the experiment on OVCAR-3, 15.3 µM (inactive). Besides, the GI50 is 5.08 µM (inactive) in the experiment with RPMI-8226; 7.21 µM (inactive) in the experiment on RXF 393; 15.5 µM (inactive) with SK-MEL-2; 17.9 µM (inactive) in the experiment on SK-OV-3; 3.13 µM (inactive) in the experiment with SW-620; 4.47 µM (inactive) in the experiment on TK-10.
As for `COC(=O)C(C(=O)C(=O)Nc1c(Cl)cc([N+](=O)[O-])cc1Cl)c1csc(-n2nc(C3=CCCCC3)cc2-c2ccccc2)n1` (stereo unspecified), the GI50 in the experiment with 786-0 is 74 µM (inactive); in the experiment on A549, 64.7 µM (inactive); in the experiment with HCT-116, 42.5 µM (inactive); in the experiment with HL-60 it was 40 µM (inactive); with HOP-62, 64.9 µM (inactive); with HT-29, 25.9 µM (inactive). Further, the GI50 in the experiment on K562 is 48.5 µM (inactive); with KM-20L2, 29 µM (inactive); in the experiment with KM12, 45 µM (inactive); in the experiment on NCI-H460 it was 82.8 µM (inactive); in the experiment with NCI-H522, 45.2 µM (inactive); in the experiment on OVCAR-3, 59 µM (inactive). Further, the GI50 is 27.9 µM (inactive) with RPMI-8226; 63.7 µM (inactive) in the experiment with RXF 393; > 100 µM (inactive) in the experiment on SK-MEL-2; 34.3 µM (inactive) with SK-OV-3; 71 µM (inactive) in the experiment with SW-620; 64.9 µM (inactive) in the experiment on TK-10.
As for `COc1c2ccoc2c(S(=O)(=O)Nc2ccc(Cl)cc2)c2oc(C)cc(=O)c12`, the GI50 with A549 is > 100 µM (inactive); with HCT-116, 36 µM (inactive); in the experiment on HL-60 it was 23.9 µM (inactive); in the experiment on HOP-62, > 89.5 µM (inactive); with HT-29, > 100 µM (inactive); in the experiment with K562, > 100 µM (inactive). Moreover, the GI50 in the experiment with KM-20L2 is > 100 µM (inactive); with KM12, > 100 µM (inactive); with NCI-H460, > 100 µM (inactive); with NCI-H522 it was 73.6 µM (inactive); with NCI/ADR-RES it was > 100 µM (inactive); with OVCAR-3, > 100 µM (inactive). Further, the GI50 is > 100 µM (inactive) with RPMI-8226; 25.1 µM (inactive) with RXF 393; > 76.2 µM (inactive) with SK-MEL-2; > 100 µM (inactive) with SK-OV-3; > 100 µM (inactive) in the experiment with SW-620.
In the case of `O=C(O)CCCCCCC[C@@H]1S[C@H]1CCCCCCO`, the GI50 in the experiment on A549, in the experiment on HCT-116, in the experiment with HL-60, with HOP-62, with HT-29 and in the experiment with K562 was > 100 µM (inactive) throughout. Moreover, the GI50 with KM-20L2, in the experiment on KM12, with NCI-H460, with NCI-H522, in the experiment with NCI/ADR-RES and in the experiment on OVCAR-3 was > 100 µM (inactive) throughout. In addition, the GI50 in the experiment with RPMI-8226, with RXF 393, in the experiment on SK-MEL-2, in the experiment with SK-OV-3 and in the experiment on SW-620 was > 100 µM (inactive) throughout.
In the case of `CN(C)CCNc1ccc2nnn3c4ccc(O)cc4c(=O)c1c23`, the GI50 was 2.15 µM (inactive) in the experiment with 786-0; 0.598 µM (active) in the experiment on A549; 1.35 µM (inactive) in the experiment on HCT-116; 1.71 µM (inactive) in the experiment with HL-60; 1.39 µM (inactive) in the experiment on HOP-62; 4.28 µM (inactive) with HT-29. Moreover, the GI50 in the experiment on K562 is 1.61 µM (inactive); in the experiment on KM-20L2 it was 7.82 µM (inactive); in the experiment on KM12, 2.32 µM (inactive); with NCI-H460 it was 0.498 µM (active); in the experiment on NCI-H522 it was 3.12 µM (inactive); in the experiment on NCI/ADR-RES, 1.81 µM (inactive). The GI50 in the experiment on OVCAR-3 is 5.73 µM (inactive); in the experiment with PC-3, 1.46 µM (inactive); in the experiment with RPMI-8226 it was 2.06 µM (inactive); with RXF 393 it was 1.68 µM (inactive); with SK-MEL-2, 9.79 µM (inactive); in the experiment with SK-OV-3, 3.72 µM (inactive). Further, the values for the GI50 in the experiment on SW-620 and with TK-10 were 1.09 µM (active) and 5.12 µM (inactive), respectively.
Turning to `O=C(CCBr)N1CCN(C(=O)CCBr)CC1` [PIPOBROMAN], the GI50 was 57.9 µM (inactive) in the experiment with 786-0; 43.9 µM (inactive) in the experiment on A549; 71.3 µM (inactive) with HCT-116; 13.7 µM (inactive) with HL-60; 60.3 µM (inactive) in the experiment with HOP-62; 103 µM (inactive) with HT-29. Also, the GI50 in the experiment with K562 is 131 µM (inactive); in the experiment on KM-20L2, 119 µM (inactive); with KM12, > 93.5 µM (inactive); in the experiment with NCI-H460, 11.9 µM (inactive); in the experiment on NCI-H522, 63.2 µM (inactive); in the experiment on NCI/ADR-RES it was 81.8 µM (inactive). Also, the GI50 with OVCAR-3 is 96.6 µM (inactive); in the experiment on PC-3, 113 µM (inactive); in the experiment with RPMI-8226, 98.4 µM (inactive); in the experiment on RXF 393 it was 68.2 µM (inactive); with SK-MEL-2, 107 µM (inactive); with SK-OV-3 it was 105 µM (inactive). In addition, the GI50 in the experiment on SW-620 is 89.9 µM (inactive); with TK-10 it was 244 µM (inactive).
